Measurements: US7517517B2 (Janssen Pharmaceutica N.V., priority 2002, dated 2009)

Target: T1, cloned rat mGlu1 receptor (Rattus norvegicus, UniProt P23385)
T1 construct: expressed in transfected cells; host or cells: CHO cells
Assay: Signal transduction at the cloned rat mGlu1 receptor in CHO cells (glutamate-induced Ca2+ rise, FLIPR)
Type: cell-based

[1] = inhibition of glutamate-induced intracellular Ca2+ rise, CHO cells expressing mGlu1 receptor, compounds with pIC50 between 7 and 8
[2] = 50% inhibition of the glutamate-induced intracellular Ca2+ rise, CHO cells, FLIPR

T1 sequence (P23385 19-1199): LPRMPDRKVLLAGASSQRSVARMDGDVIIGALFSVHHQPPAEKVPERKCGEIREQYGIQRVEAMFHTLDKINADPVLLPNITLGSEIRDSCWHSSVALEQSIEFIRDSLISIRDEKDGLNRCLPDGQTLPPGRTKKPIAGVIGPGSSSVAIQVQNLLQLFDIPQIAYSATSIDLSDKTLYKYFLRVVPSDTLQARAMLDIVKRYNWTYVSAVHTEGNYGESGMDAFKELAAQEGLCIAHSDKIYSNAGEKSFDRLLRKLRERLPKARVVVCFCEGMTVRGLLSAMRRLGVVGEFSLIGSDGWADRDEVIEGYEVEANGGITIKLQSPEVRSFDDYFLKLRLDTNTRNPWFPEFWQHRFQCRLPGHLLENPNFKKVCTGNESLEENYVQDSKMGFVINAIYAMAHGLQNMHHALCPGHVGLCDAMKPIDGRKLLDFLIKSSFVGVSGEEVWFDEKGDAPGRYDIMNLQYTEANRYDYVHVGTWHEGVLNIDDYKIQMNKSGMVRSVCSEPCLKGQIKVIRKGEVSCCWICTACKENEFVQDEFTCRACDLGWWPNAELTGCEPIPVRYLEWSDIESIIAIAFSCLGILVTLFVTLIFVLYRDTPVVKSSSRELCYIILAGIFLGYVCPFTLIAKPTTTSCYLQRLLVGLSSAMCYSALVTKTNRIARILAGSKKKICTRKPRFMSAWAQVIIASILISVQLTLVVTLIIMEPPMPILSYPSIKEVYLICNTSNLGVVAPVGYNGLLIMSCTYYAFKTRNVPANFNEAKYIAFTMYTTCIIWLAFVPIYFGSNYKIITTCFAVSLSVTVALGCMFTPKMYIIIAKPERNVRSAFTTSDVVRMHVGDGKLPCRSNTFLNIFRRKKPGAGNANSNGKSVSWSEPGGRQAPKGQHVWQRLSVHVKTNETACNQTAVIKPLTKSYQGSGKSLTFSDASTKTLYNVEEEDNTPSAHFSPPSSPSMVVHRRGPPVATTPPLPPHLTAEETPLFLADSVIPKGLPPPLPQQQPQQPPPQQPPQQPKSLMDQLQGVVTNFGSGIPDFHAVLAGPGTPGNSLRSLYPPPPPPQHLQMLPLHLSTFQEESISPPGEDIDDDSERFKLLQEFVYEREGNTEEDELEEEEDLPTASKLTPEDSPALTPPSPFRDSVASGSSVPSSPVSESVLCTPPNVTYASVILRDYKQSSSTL

IC50 [1] [nM] | IC50 [2] [nM] | Structure (SMILES)
20 |  | CCc1cc2cc(C(=O)[C@H]3CCC[C@H](OC)C3)ccc2nc1Cl (relative stereo) [Compound 239]
13.5 |  | CCc1cc2cc(C(=O)C3(F)CCC(OC)CC3)ccc2nc1Cl (single isomer, unassigned) [Compound 220]
100 |  | CCc1cc2cc(C(=O)[C@H]3CC[C@@H](OC)CC3)ccc2[nH]c1=S [Compound 36]
83.2 |  | CCCc1cc2cc(C(=O)[C@H]3CC[C@@H](OC)CC3)ccc2nc1OC [Compound 97]
26.9 |  | COc1nc2ccc(C(=O)[C@H]3CC[C@@H](OC)CC3)cc2cc1C [Compound 98]
56.2 |  | CCc1c(C)nc2ccc(C(=O)[C@H]3CC[C@@H](OC)CC3)cc2c1CC [Compound 108]
22.9 |  | CCO[C@H]1CC[C@@H](C(=O)c2ccc3nc(C)c(CC)cc3c2)CC1 [Compound 115]
44.7 |  | CCc1cc2cc(C(=O)Cc3ccccc3)ccc2nc1Cl [Compound 117]
30.2 |  | CCc1cc2cc(C(=O)[C@H]3CC[C@@H](OC)CC3)ccc2nc1N(C)C [Compound 128]
 | 4.68 | COC1CCC(C(=O)c2ccc3nc4c(cc3c2)CCCS4)CC1 (stereo not shown) [Compound 176]
69.2 |  | CCc1cc2cc(C(=O)[C@H]3CC[C@@H](OC)CC3)ccc2nc1NC(=O)c1ccc(=O)[nH]c1 [Compound 191]
20 |  | CCc1cc2cc(C(=O)[C@H]3CC[C@H](OC)CC3)c(C)cc2[nH]c1=O [Compound 213]
16.6 |  | CCc1cc2cc(C(=O)C3(F)CCC(OC)CC3)ccc2nc1C (stereo not shown) [Compound 224]
 | 9.77 | CCc1cc2cc(C(=O)Cc3ccccc3)ccc2nc1C [Compound 237]
16.2 |  | CO[C@H]1CC[C@@H](C(=O)c2ccc3nc(C)ccc3c2)CC1 [Compound 238]
17.4 |  | CCc1cc2cc(C(=O)C3(C)CCC(OC)CC3)ccc2nc1C (stereo not shown) [Compound 242]
58.9 |  | CCCO[C@H]1CC[C@@H](C(=O)c2ccc3nc(C)c(CC)cc3c2)CC1 [Compound 255]
36.3 |  | CCc1cc2cc(C(=O)Cc3ccc(F)c(F)c3)ccc2nc1C [Compound 277]
45.7 |  | CCc1cc2cc(C(=O)C3CC4CC3CC4O)ccc2nc1Cl (stereo not shown) [Compound 280]

IC50 [1] [nM] | IC50 [2] [nM] | Structure (SMILES)
23.4 |  | CCc1cc2cc(C(=O)C3CC4CC(O)C3C4)ccc2nc1Cl (stereo not shown) [Compound 281]
93.3 |  | COCc1cc2cc(C(=O)[C@H]3CC[C@H](OC)CC3)ccc2nc1C [Compound 286]
53.7 |  | CCc1cc2cc(C(=O)Cc3ccccc3)ccc2nc1N [Compound 289]
87.1 |  | CCCc1cc2cc(C(=O)Cc3ccccc3)ccc2nc1C [Compound 290]
33.1 |  | CCc1cc2cc(C(=O)Cc3cccs3)ccc2nc1C [Compound 298]
77.6 |  | CCCc1cc2cc(C(=O)CC3CC4CCC3C4)ccc2nc1C (stereo not shown) [Compound 307]
95.5 |  | CCCc1cc2cc(C(=O)C3CC4CCC3C4)ccc2nc1C (stereo not shown) [Compound 318]
38.9 |  | CCc1cc2cc(C(=O)C3CCC(OC)CC3)ccc2nc1NC(=O)C1CCN(C(C)=O)CC1 (stereo not shown) [Compound 333]
11.2 |  | CCc1cc2cc(C(=O)C3CCC(OC)CC3)ccc2nc1NC(=O)c1ccc(=O)[nH]c1 (stereo not shown) [Compound 334]
12.3 |  | CCc1cc2cc(C(=O)C3CCC(OC)CC3)ccc2nc1NC(=O)CCSC (stereo not shown) [Compound 338]
14.8 |  | CCc1cc2cc(C(=O)C3CCC(OC)CC3)ccc2nc1NC(=O)CCCc1ccc(OC)c(OC)c1 (stereo not shown) [Compound 341]
46.8 |  | CCc1cc2cc(C(=O)C3CCC(OC)CC3)ccc2nc1NC(=O)C1CCC(OC)CC1 (stereo not shown) [Compound 343]
30.2 |  | CCc1cc2cc(C(=O)C3CCC(OC)CC3)ccc2nc1NC(=O)C1CCCCC1 (stereo not shown) [Compound 344]
38 |  | CCc1cc2cc(C(=O)C3CCC(OC)CC3)ccc2nc1NC(=O)C1CCCO1 (stereo not shown) [Compound 356]
39.8 |  | CCc1cc2cc(C(=O)C3CCC(OC)CC3)ccc2nc1NC(=O)Nc1ccc(N(C)C)cc1 (stereo not shown) [Compound 369]
 | 2.59 | CO[C@H]1CC[C@@H](C(=O)c2ccc3nc4c(cc3c2)CCS4)CC1 [Compound 416]
 | 9.02 | CO[C@H]1CC[C@H](C(=O)c2ccc3nc4c(cc3c2)CCS4)CC1 [Compound 418]
 | 8.61 | CCc1cc2cc(C(=O)[C@H]3CC[C@@H](OC)CC3)c(C)cc2[nH]c1=O [Compound 419]
 | 7.33 | COC1CCC(C(=O)c2ccc3nc4c(cc3c2)CCCC4)CC1 (stereo not shown) [Compound 420]

Further lines, the compound ahead of its results:

Structure (SMILES) | IC50 [1] [nM] | IC50 [2] [nM]
CCc1cc2cc(C(=O)C3(F)CCC(OC)CC3)ccc2nc1Cl (single isomer, unassigned) [Compound 221] | 61.7 | 
COc1ccc2cc(C(=O)[C@H]3CC[C@@H](OC)CC3)ccc2n1 [Compound 91] | 37.2 | 
CCc1cc2cc(C(=O)C3CC=CCC3)ccc2nc1C (stereo not shown) [Compound 112] | 89.1 | 
CCc1cc2cc(C(=O)[C@H]3CC[C@H](OC)CC3)ccc2nc1C [Compound 131] | 64.6 | 
COC1CCC(C(=O)c2ccc3nc4c(cc3c2)CCCO4)CC1 (stereo not shown) [Compound 174] |  | 3.24
CO[C@H]1CC[C@H](C(=O)c2ccc3nc4c(cc3c2)CCCO4)CC1 [Compound 175] | 19.5 | 
CO[C@H]1CC[C@H](C(=O)c2ccc3nc4c(cc3c2)CCCS4)CC1 [Compound 178] | 12 | 
CCc1cc2cc(C(=O)[C@H]3CC[C@@H](OC)CC3)ccc2nc1NC(=O)C1CCN(C(C)=O)CC1 [Compound 193] | 61.7 | 
CCc1cc2cc(C(=O)C3CCC(OC)CC3)ccc2nc1NC(=O)C12CC3CC(CC(C3)C1)C2 (stereo not shown) [Compound 199] | 85.1 | 
CCc1cc2cc(C(=O)C3CCC(OC)CC3)c(C)cc2nc1Cl (stereo not shown) [Compound 210] |  | 4.84
CCc1cc2cc(C(=O)C3CCC(OC)CC3)c(C)cc2nc1C (stereo not shown) [Compound 214] |  | 5.85
CCc1cc2cc(C(=O)Cc3ccccc3OC)ccc2nc1C [Compound 236] | 67.6 | 
CCc1cc2cc(C(=O)C3CCCC(OC)C3)ccc2nc1C (stereo not shown) [Compound 241] | 21.4 | 
CCc1cc2cc(C(=O)CC3CCCCC34OCCO4)ccc2nc1Cl (stereo not shown) [Compound 243] | 51.3 | 
CCc1cc2cc(C(=O)C3(c4ccccc4)CC3)ccc2nc1C [Compound 283] | 95.5 | 
CO[C@H]1CC[C@@H](C(=O)c2ccc3nc(C)c(CN(C)C)cc3c2)CC1 [Compound 287] | 49 | 
CCCc1cc2cc(C(=O)[C@H]3CC[C@@H](OC)CC3)ccc2nc1Cl [Compound 291] | 44.7 | 
CCc1cc2cc(C(=O)Cc3ccsc3)ccc2nc1Cl [Compound 296] | 60.3 | 
CCc1cc2cc(C(=O)C34CCC(CC3)C4)ccc2nc1C [Compound 300] | 83.2 | 
CCc1cc2cc(C(=O)CC3CC4CCC3C4)ccc2nc1C (stereo not shown) [Compound 303] | 60.3 | 
O=C(CC1CC2CCC1C2)c1ccc2nc(Cl)ccc2c1 (stereo not shown) [Compound 313] | 44.7 | 
CCc1cc2cc(C(=O)C3CCC(OC)CC3)ccc2nc1NC(=O)c1ccc(OC)cc1 (stereo not shown) [Compound 323] | 52.5 | 
CCOCC(=O)Nc1nc2ccc(C(=O)C3CCC(OC)CC3)cc2cc1CC (stereo not shown) [Compound 326] | 38.9 | 
CCc1cc2cc(C(=O)C3CCC(OC)CC3)ccc2nc1NC(=O)CSCc1ccccc1 (stereo not shown) [Compound 332] | 67.6 | 
CCc1cc2cc(C(=O)C3CCC(OC)CC3)ccc2nc1NC(=O)CCCC1CCCCC1 (stereo not shown) [Compound 346] | 18.2 | 
CCc1cc2cc(C(=O)C3CCC(OC)CC3)ccc2nc1NC(=O)Nc1ccccc1SC (stereo not shown) [Compound 373] | 56.2 | 
